Laboratory results taken from patent US10258602B2 (Ocera Therapeutics, Inc., priority 2007, dated 2019).

Experiments:
fasted rats = assay: Gastric emptying in fasted rat model, standard method E; type: in vivo; settings: average where repeated
Protocol: E. Gastric Emptying in Fasted Rat Model
To examine the effects of compounds of the invention in a model for gastroparesis, compounds were evaluated for possible effects on gastric emptying in fasted rats. This model is used to determine the potential of compounds of the invention to promote motility in fasted rats.
• 1. Overnight-fasted rats (male, Wistar, 200 g, n=5/group) were given a meal (2 mL) of methylcellulose (2%) by intragastric gavage. The meal was labeled with phenol red (0.05%). • 2. Test articles (dosed at various concentrations, typically 1, 3, 10, 30 mg/kg), vehicle and positive control (metoclopramide, a 5-HT ligand and prokinetic agent currently prescribed for the treatment of GI disorders, including gastroparesis) were administered by oral gavage immediately after the meal (time=0). • 3. […] Total phenol red remaining in the stomach was quantified by a colorimetric method at 560 nm. • 5. A 30% or more increase in gastric emptying (as compared to the vehicle control) was considered significant. • 6. One-way ANOVA, Dunnet's post-hoc statistical test was applied Results
The effects of representative compounds of the invention in the rat gastric emptying model described in standard method E are provided in the following table. In cases where an experiment was conducted multiple times, the average of the individual results is presented.

[1] = molecular target: human growth hormone secretagogue receptor (hGHS-R1a) (Homo sapiens, UniProt Q92847); assay: Competitive radioligand binding assay (ghrelin receptor), standard method A; settings: binding activity at the human ghrelin receptor, standard method A
human growth hormone secretagogue receptor (hGHS-R1a), sequence (Q92847 whole entry): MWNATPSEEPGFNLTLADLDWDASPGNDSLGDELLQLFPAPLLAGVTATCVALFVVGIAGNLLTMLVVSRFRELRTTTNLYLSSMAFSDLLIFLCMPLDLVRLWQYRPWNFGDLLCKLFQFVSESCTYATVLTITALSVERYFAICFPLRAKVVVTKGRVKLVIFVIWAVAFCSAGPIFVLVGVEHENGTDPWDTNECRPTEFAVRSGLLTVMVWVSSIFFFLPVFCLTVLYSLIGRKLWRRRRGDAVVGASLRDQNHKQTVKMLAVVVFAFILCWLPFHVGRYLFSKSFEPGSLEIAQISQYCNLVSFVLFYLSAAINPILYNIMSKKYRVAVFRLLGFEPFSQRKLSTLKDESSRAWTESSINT

rat plasma = assay: Plasma protein binding, rat plasma; type: in vitro ADME
human plasma = assay: Plasma protein binding, human plasma (equilibrium dialysis); type: in vitro ADME
Text: J. Plasma Protein Binding
The pharmacokinetic and pharmacodynamic properties of drugs are largely a function of the reversible binding of drugs to plasma or serum proteins such as albumin and α1-acid glycoprotein. In general, only unbound drug is available for diffusion or transport across cell membranes, and for interaction at the pharmacological target. On the other hand, drugs with low plasma protein binding generally have large volumes of distribution and rapid clearance since only unbound drug is available for glomerular filtration and, in some cases, hepatic clearance. Thus, the extent of plasma protein binding can influence efficacy, distribution and elimination. The ideal range for plasma protein binding is in the range of 87-98% for most drug products.
Protein binding studies were performed using human plasma. Briefly, 96-well microplates were used to incubate various concentrations of the test article for 60 min at 37° C. Bound and unbound fractions are separated by equilibrium dialysis, where the concentration remaining in the unbound fraction is quantified by LC-MS or LC-MS-MS analysis. […].
The table below presents protein binding data for representative compounds of the present invention in both human and rat plasma.

[2] = Pharmacokinetic analysis (oral bioavailability, elimination half-life) in the rat; type: in vivo; settings: oral administration, 8 mg/kg dose, HPLC-MS
Text: D. Pharmacokinetic Analysis of Representative Compounds of the Invention
The pharmacokinetic behavior of compound of the invention can be ascertained by methods well known to those skilled in the art. (Wilkinson, G. R. “Pharmacokinetics: The Dynamics of Drug Absorption, Distribution, and Elimination” in Goodman & Gilman's The Pharmacological Basis of Therapeutics, Tenth Edition, Hardman, J. G.; Limbird, L. E., Eds., McGraw Hill, Columbus, Ohio, 2001, Chapter 1.) The following method was used to investigate the pharmacokinetic parameters (elimination half-life, total plasma clearance, etc.) for intravenous, subcutaneous and oral administration of compounds of the present invention. See also U.S. patent application Ser. No. 11/149,512 and Ser. No. 11/149,731 and Intl. Pat. Appl. No. PCT/US2007/017905.
The table below presents oral bioavailability and elimination half-life data in the rat for representative compounds of the present invention. The parameters were determined by HPLC-MS after oral administration of an 8 mg/kg dose of the compound, except for compound 822 where a 2 mg/kg dose was used.

[3] = molecular target: GHS-R1a receptor (human ghrelin receptor) (Homo sapiens, UniProt Q92847); assay: Aequorin functional assay (ghrelin receptor), standard method B; type: cell-based; settings: functional activity at the human ghrelin receptor, standard method B (Aequorin)
GHS-R1a receptor (human ghrelin receptor), sequence (Q92847 whole entry): as above
Text: B. Aequorin Functional Assay (Ghrelin Receptor)
See also U.S. patent application Ser. Nos. 11/149,512 and 11/149,731. (LePoul, E.; et al. J. Biomol. Screen. 2002, 7, 57-65; Bednarek, M. A.; et al. J. Med. Chem. 2000, 43, 4370-4376; Palucki, B. L.; et al. Bioorg. Med. Chem. Lett. 2001, 11, 1955-1957.) Functional activity at the gherlin receptor for representative compounds of the present invention is presented in the Examples.

Row | Ki [1] | Rat Plasma Protein Binding (%) (rat plasma; test concentration 3 μg/mL) | Human Plasma Protein Binding (%) (human plasma; test concentration 3 μg/mL) | Elimination Half-life (t1/2, rat, min) [2] | Oral Bioavailability (rat, % F) [2] | Rat Plasma Protein Binding (%) (rat plasma; test concentration 5 μg/mL) | Human Plasma Protein Binding (%) (human plasma; test concentration 5 μg/mL) | Rat Plasma Protein Binding (%) (rat plasma; test concentration 1 μg/mL) | Human Plasma Protein Binding (%) (human plasma; test concentration 1 μg/mL) | EC50 [3] | SMILES | Percent Increase in Gastric Emptying After Oral Administration (fasted rats; dose 3 mg/kg) | Percent Increase in Gastric Emptying After Oral Administration (fasted rats; dose 1 mg/kg) | Percent Increase in Gastric Emptying After Oral Administration (fasted rats; dose 10 mg/kg)
1 | ≤ 10 nM | 94.0% | 77.4% |  |  |  |  |  |  |  | CC1CNC(C2CC2)C(=O)N(C)C(C)C(=O)NC(CC(C)(C)C)C(=O)NCCCC2CCCCC2O1 (mixture of isomers) [Compound 833] | 6% |  | 
2 | ≤ 10 nM | 98.2% | 95.2% | 116 min | 12 % F |  |  |  |  |  | CC(C)CC1NC(=O)C(C)N(C)C(=O)C(C2CC2)NC(C)C(C)Oc2ccccc2CCCNC1=O (stereo not drawn) [Compound 819] | 21% | 9% | 18%
3 | ≤ 100 nM |  |  | 238 min | 18 % F | 89.2% | 99.9% |  |  |  | C[C@@H]1CN[C@@H](C2CC2)C(=O)N(C)[C@H](C)C(=O)N[C@H](Cc2ccc(O)cc2)C(=O)N[C@@H](C)CCc2ccccc2O1 [Compound 808] | 37% | 18% | 40%
4 | ≤ 100 nM |  |  | 160 min | 26 % F |  |  | 99.8% | 93.4% | ≤ 100 nM | CC(C)C[C@H]1NC(=O)[C@@H](C)N(C)C(=O)[C@H](C2CC2)NC[C@H]2CCc3cccc(c3O2)CCCNC1=O [Compound 802] | 11% | 12% | 26%

Row | SMILES | Ki [1] | Rat Plasma Protein Binding (%) (rat plasma; test concentration 3 μg/mL) | Human Plasma Protein Binding (%) (human plasma; test concentration 3 μg/mL) | Elimination Half-life (t1/2, rat, min) [2] | Oral Bioavailability (rat, % F) [2] | Rat Plasma Protein Binding (%) (rat plasma; test concentration 5 μg/mL) | Human Plasma Protein Binding (%) (human plasma; test concentration 5 μg/mL) | Rat Plasma Protein Binding (%) (rat plasma; test concentration 1 μg/mL) | Human Plasma Protein Binding (%) (human plasma; test concentration 1 μg/mL) | EC50 [3] | Percent Increase in Gastric Emptying After Oral Administration (fasted rats; dose 3 mg/kg) | Percent Increase in Gastric Emptying After Oral Administration (fasted rats; dose 1 mg/kg) | Percent Increase in Gastric Emptying After Oral Administration (fasted rats; dose 10 mg/kg)
5 | CC1CNC(C2CC2)C(=O)N(C)C(C)C(=O)NC(Cc2ccc(O)c(F)c2)C(=O)NCCCC2CCCCC2O1 (mixture of isomers) [Compound 832] | ≤ 1 nM | 97.3% | 88.9% |  |  |  |  |  |  |  | 13% |  | 
